Results from patent US7632841B2, “2-N{5-[[4-[2-(methyl-2-pyridinylamino) ethoxy] phenyl]methyl]-2,4-thiazolidinedione} butanedioic acid, methods of preparation and compositions with rosiglitazone maleate” (Teva Pharmaceutical Industries, Ltd., priority 2006, dated 2009).

Test: Compatibility study: rosiglitazone maleate mixed with excipients/metformin and water, formation of Compound 1
Assay type: physicochemical
Conditions: rosiglitazone maleate mixed with the named excipient in proportions of 500 mg/4 mg tablets, 0.5 ml water added, 65° C. for 4 days
Description: Rosiglitazone maleate was mixed with various excipients and with metformin in the same proportions as present in the 500 mg/4 mg (base strength) metformin/rosiglitazone maleate tablets. 0.5 ml of water was added to each mixture, and the samples were kept at 65° C. for 4 days. The amount of Compound 1 was determined in each of the samples using the method in Example 4. The peaks were measured and the area percent (area of Compound 1 peak/area of all rosiglitazone related peaks) of the Compound 1 peak is listed below.
Placebo mix A refers to a mixture of excipients as indicated in Example 5a, with the exception of rosiglitazone maleate.
Placebo mix B refers to a mixture of excipients as indicated in Example 5b, with the exception of rosiglitazone maleate.

- Area Percent of Compound 1 peak (area of Compound 1 peak/area of all rosiglitazone related peaks): 0.9 Area Percent
Structure (SMILES): CN(CCOc1ccc(CC2SC(=O)NC2=O)cc1)c1ccccn1.O=C(O)/C=C\C(=O)O (racemic) [Rosiglitazone Maleate (alone), (±)-5-[[4-[2-(methyl-2-pyridinylamino)ethoxy]phenyl]methyl]-2,4-thiazolidinedione, (Z)-2-butenedioate (1:1)]
